According to US6180653A, “Aminopyrazole derivatives” (Banyu Pharmaceutical Co., Ltd., priority 1996, dated 2001):

Molecular target: T1, human NPY Y5 receptor (Homo sapiens, UniProt Q15761)
T1 construct: expressed in transfected cells
T1 sequence (Q15761 1-445): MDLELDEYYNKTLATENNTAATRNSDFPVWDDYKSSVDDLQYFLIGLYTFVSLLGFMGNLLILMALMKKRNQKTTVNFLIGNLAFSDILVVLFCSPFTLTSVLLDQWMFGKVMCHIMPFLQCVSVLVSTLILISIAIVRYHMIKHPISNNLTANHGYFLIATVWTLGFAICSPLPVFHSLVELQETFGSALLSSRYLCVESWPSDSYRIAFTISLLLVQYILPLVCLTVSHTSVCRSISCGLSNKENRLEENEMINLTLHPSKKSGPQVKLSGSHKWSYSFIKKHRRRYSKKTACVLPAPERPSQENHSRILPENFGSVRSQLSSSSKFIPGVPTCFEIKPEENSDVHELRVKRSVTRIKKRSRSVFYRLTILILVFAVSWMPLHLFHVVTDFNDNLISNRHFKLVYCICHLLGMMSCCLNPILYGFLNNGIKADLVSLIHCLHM
Experiment: test of inhibition of NPY binding ([125I] peptide YY binding to membranes of NPY Y5 receptor-expressing cells)
Details: [125I] peptide YY 20,000 cpm, 25° C., 2 hours, pH 7.4; membranes of transfected COS-7, CHO or LM(tk-) cells; read-out: concentration needed to inhibit 50% of the specific binding to the peptide YY (IC50 value)
Source text: cDNA Sequence encoding a human NPY Y5 receptor [International Publication WO 96/16542] was cloned into expression vectors pcDNA3, pRc/RSV (manufactured by Invitrogen) and pCI-neo (manufactured by Promega). Using the cationic lipid method [see Proceedings of the National Academy of Science of the United States of America, vol.84, p.7413 (1987)], host cells COS-7, CHO and LM(tk-) (American Type Culture Collection) were transfected with the thus prepared expression vectors to obtain cells in which the NPY Y5 receptor had been expressed.
Each of the membrane preparations thus prepared from the cells in which the NPY Y5 receptor had been expressed was incubated together with each compound to be tested and 20,000 cpm of [^125 I,] peptide YY (manufactured by Amersham) at 25° C. for 2 hours in an assay buffer solution (25 mM HEPES buffer, pH 7.4, containing 10 mM magnesium chloride, 1 mM phenylmethylsulfonyl fluoride and 0.1% bacitracin) and then, the reaction mixture was filtered through a glass filter GF/C. After washing with 50 mM Tris buffer, pH 7.4, containing 0.3% BSA, radioactivity on the glass filter was measured using a gamma counter. […]

COc1ccc(-c2cc(NC(=O)Cc3ccc4ccccc4c3)[nH]n2)cc1OC [Example 6] showed an IC50 of 8.3 nM.
